Laboratory results reported in patent EP0041644B1 (priority 1980, dated 1981).
Marks after values point to notes of the source that are not given here.

Columns and labels:
[1] = tested on: B16 Melanoma; assay: B16 Melanoma - Test 3 (sc trocar fragments); type: in vivo, mice; conditions: for Effect MST %TC / MST Days: qd 1→9
[2] = tested on: L1210 Leukemia; assay: L1210 Leukemia - Test 1 (survival of tumor-bearing mice); type: in vivo; conditions: d. 1 only
Text: This evaluation of the ammonium salt finds the drug to be active against L1210 (ip) leukemia when administered ip one day post-implant of 10^6 L1210 cells (maximum T/C was 164%). […] The vehicle for the ammonium salt was water.

[3] = tested on: B16 Melanoma; assay: B16 Melanoma - Test 1 (ip tumor brei); type: in vivo, mice; conditions: for Effect MST % T/C / MST Days: QD 1→9, vehicle CMC + H2O
[4] = tested on: L1210 Leukemia; assay: L1210 Leukemia - Test 3 (vehicle comparison); type: in vivo, mice; conditions: Day 1 only, vehicle CMC + saline
[5] = tested on: B16 Melanoma; assay: B16 Melanoma - Test 2 (ip tumor brei); type: in vivo, mice; conditions: QD +9
[6] = tested on: Lewis Lung Carcinoma; assay: Lewis Lung Carcinoma - Test 1 (ip, delayed therapy); type: in vivo, mice
[7] = tested on: L-1210 Leukemia; assay: L-1210 Leukemia (Table VIII); conditions: for lethality: 200 mg/kg, single ip injection; for maximum T/C / optimal doses: single ip injections; for optimal doses: dose of maximum T/C
Experimental: The sodium and ammonium salts of the present invention were tested against transplantable mouse tumors as indicated below. The methodology used generally followed the protocols of the National Cancer Institute (Cancer Chemotherapy Rep., Part 3, 3, 1-103 (1972). The essential experimental details are given at the bottom of the following tables.

Compound: [NH2][Pt]1([NH2])[O]C(=O)C(O)C(=O)[O]1 [2-Hydroxymalonato diammine platinum (II), 2-hydroxymalonato diammine platinum (II)]
- Effect MST %TC ([1]; 8 mg/kg/inj ip): 131 %TC
- MST Days ([1]; 8 mg/kg/inj ip): 40.0 days
- Effect MST %TC ([1]; 12 mg/kg/inj ip): 115 %TC
- MST Days ([1]; 12 mg/kg/inj ip): 35.0 days
- Effect MST %TC ([1]; 16 mg/kg/inj ip): 48 %TC
- MST Days ([1]; 16 mg/kg/inj ip): 14.5 days
- Effect MST %TC ([1]; 24 mg/kg/inj ip): TOX
- MST Days ([1]; 24 mg/kg/inj ip): TOX
- T/C ([1]; given ip, sc-implanted B16 melanoma): 131%
- Effect MST % T/C ([2]; 20 mg/kg/day ip): 143 % T/C
- MST Days ([2]; 20 mg/kg/day ip): 10.0 days
- Effect MST % T/C ([2]; 40 mg/kg/day ip): 143 % T/C
- MST Days ([2]; 40 mg/kg/day ip): 10.0 days
- Effect MST % T/C ([2]; 60 mg/kg/day ip): 157 % T/C
- MST Days ([2]; 60 mg/kg/day ip): 11.0 days
- Effect MST % T/C ([2]; 80 mg/kg/day ip): 171 % T/C
- MST Days ([2]; 80 mg/kg/day ip): 12.0 days
- Effect MST % T/C ([3]; 2 mg/kg/day ip): 133 % T/C
- MST Days ([3]; 2 mg/kg/day ip): 26.0 days
- Effect MST % T/C ([3]; 4 mg/kg/day ip): 187 % T/C
- MST Days ([3]; 4 mg/kg/day ip): 36.5 days
- Effect MST % T/C ([3]; 8 mg/kg/day ip): 177 % T/C
- MST Days ([3]; 8 mg/kg/day ip): 34.5 days
- Effect MST % T/C ([3]; 16 mg/kg/day ip): >308* % T/C
- MST Days ([3]; 16 mg/kg/day ip): >60.0* Days
- Effect MST % T/C ([3]; 24 mg/kg/day ip): 54 % T/C
- MST Days ([3]; 24 mg/kg/day ip): 10.5 days
- Effect MST % T/C ([3]; 32 mg/kg/day ip): 38 % T/C
- MST Days ([3]; 32 mg/kg/day ip): 7.5 days
- maximum T/C ([3]; ip B16, ip QD 1→9): > 308%
- Effect MST % T/C ([4]; 40 mg/kg ip): 114 % T/C
- MST Days ([4]; 40 mg/kg ip): 8.0 days
- Effect MST % T/C ([4]; 60 mg/kg ip): 143 % T/C
- MST Days ([4]; 60 mg/kg ip): 10.0 days
- Effect MST % T/C ([4]; 80 mg/kg ip): 129 % T/C
- MST Days ([4]; 80 mg/kg ip): 9.0 days
- Effect MST % T/C ([4]; 100 mg/kg ip): 100 % T/C
- MST Days ([4]; 100 mg/kg ip): 7.0 days
- Average Weight Change ([5]; 2 mg/kg/day ip): -1.1 g
- Effect MST % T/C ([5]; 2 mg/kg/day ip): 182 % T/C
- MST Days ([5]; 2 mg/kg/day ip): 37.5 days
- Average Weight Change ([5]; 4 mg/kg/day ip): -1.1 g
- Effect MST % T/C ([5]; 4 mg/kg/day ip): 163 % T/C
- MST Days ([5]; 4 mg/kg/day ip): 33.5 days
- Average Weight Change ([5]; 8 mg/kg/day ip): -2.1 g
- Effect MST % T/C ([5]; 8 mg/kg/day ip): 190 % T/C
- MST Days ([5]; 8 mg/kg/day ip): 39.0 days
- Average Weight Change ([5]; 16 mg/kg/day ip): -2.3 g
- Effect MST % T/C ([5]; 16 mg/kg/day ip): >293^a % T/C
- MST Days ([5]; 16 mg/kg/day ip): >60.0^a Days
- Effect MST %TC ([6]; 8 mg/kg/inj ip, qd 5→13): 112 %TC
- MST Days ([6]; 8 mg/kg/inj ip, qd 5→13): 14.0 days
- Effect MST %TC ([6]; 12 mg/kg/inj ip, qd 5→13): 168 %TC
- MST Days ([6]; 12 mg/kg/inj ip, qd 5→13): 21.0 days
- Effect MST %TC ([6]; 16 mg/kg/inj ip, qd 5→13): 176 %TC
- MST Days ([6]; 16 mg/kg/inj ip, qd 5→13): 22.0 days
- Effect MST %TC ([6]; 20 mg/kg/inj ip, d. 5,9&13): 100 %TC
- MST Days ([6]; 20 mg/kg/inj ip, d. 5,9&13): 12.5 days
- Effect MST %TC ([6]; 24 mg/kg/inj ip, qd 5→13): 220 %TC
- MST Days ([6]; 24 mg/kg/inj ip, qd 5→13): 27.5 days
- Effect MST %TC ([6]; 40 mg/kg/inj ip, d. 5,9&13): 120 %TC
- MST Days ([6]; 40 mg/kg/inj ip, d. 5,9&13): 15.0 days
- Effect MST %TC ([6]; 60 mg/kg/inj ip, d. 5,9&13): 156 %TC
- MST Days ([6]; 60 mg/kg/inj ip, d. 5,9&13): 19.5 days
- Effect MST %TC ([6]; 80 mg/kg/inj ip, d. 5,9&13): 152 %TC
- MST Days ([6]; 80 mg/kg/inj ip, d. 5,9&13): 19.0 days
- Survivors Day 9(48) ([6]; Day 48 (figure in parentheses), 60 mg/kg/inj ip, d. 5,9&13): 1
- maximum T/C ([6]; given ip, therapy from day 5): 220%
- Survivors Day 9(48) ([6]; mouse, in vivo, ip, 8 mg/kg): 6/6
- Survivors Day 9(48) ([6]; mouse, in vivo, ip, 12 mg/kg): 6/6
- Survivors Day 9(48) ([6]; mouse, in vivo, ip, 16 mg/kg): 6/6
- Survivors Day 9(48) ([6]; mouse, in vivo, ip, 20 mg/kg): 6/6
- Survivors Day 9(48) ([6]; mouse, in vivo, ip, 24 mg/kg): 6/6
- Survivors Day 9(48) ([6]; mouse, in vivo, ip, 40 mg/kg): 6/6
- Survivors Day 9(48) ([6]; mouse, in vivo, ip, 60 mg/kg): 6/6
- Survivors Day 9(48) ([6]; mouse, in vivo, ip, 80 mg/kg): 6/6

Compound: O=C1[O][Pt]2([NH]C3CCCCC3[NH]2)[O]C(=O)C1O (stereo not drawn) [2-hydroxymalonato(1,2-diaminocyclohexane)platinum (II)]
- Average Weight Change ([7]; 25 mg/kg/inj ip, d.1): -0.3 g
- Effect MST % T/C ([7]; 25 mg/kg/inj ip, d.1): 142 % T/C
- MST Days ([7]; 25 mg/kg/inj ip, d.1): 8.5 days
- Survivors Day 5(30) ([7]; 25 mg/kg/inj ip, d.1): 6/6
- Average Weight Change,g ([7]; 50 mg/kg/inj ip, d.1): +0.1 g
- Effect MST % T/C ([7]; 50 mg/kg/inj ip, d.1): 150 % T/C
- MST Days ([7]; 50 mg/kg/inj ip, d.1): 9.0 days
- Survivors Day 5(30) ([7]; 50 mg/kg/inj ip, d.1): 6/6
- Average Weight Change ([7]; 100 mg/kg/inj ip, d.1): -1.5 g
- Effect MST % T/C ([7]; 100 mg/kg/inj ip, d.1): 183 % T/C
- MST Days ([7]; 100 mg/kg/inj ip, d.1): 11.0 days
- Survivors Day 5(30) ([7]; 100 mg/kg/inj ip, d.1): 6/6
- lethality [7]: lethal
- Average Weight Change,g ([7]; 200 mg/kg/inj ip, d.1): TOX
- Effect MST % T/C ([7]; 200 mg/kg/inj ip, d.1): TOX
- MST Days ([7]; 200 mg/kg/inj ip, d.1): TOX
- Survivors Day 5(30) ([7]; 200 mg/kg/inj ip, d.1): 0/6
- maximum T/C [7]: 183%
- optimal doses [7]: 100 mg/kg

Compound: O=C1[O][Pt]2([NH]C3CCCCC3[NH]2)[O]C(=O)C1[O-].[Na+] (stereo not drawn) [Example 6, 2-Hydroxymalonato(1,2-diaminocyclohexane)platinum (II), sodium salt]
- Average Weight Change ([7]; 6 mg/kg/inj ip, qd 1→9): -0.9 g
- Effect MST % T/C ([7]; 6 mg/kg/inj ip, qd 1→9): 192 % T/C
- MST Days ([7]; 6 mg/kg/inj ip, qd 1→9): 11.5 days
- Survivors Day 5(30) ([7]; 6 mg/kg/inj ip, qd 1→9): 6/6
- Average Weight Change ([7]; 12 mg/kg/inj ip, qd 1→9): -2.3 g
- Effect MST % T/C ([7]; 12 mg/kg/inj ip, qd 1→9): 233 % T/C
- MST Days ([7]; 12 mg/kg/inj ip, qd 1→9): 14.0 days
- Survivors Day 5(30) ([7]; 12 mg/kg/inj ip, qd 1→9): 6/6
- Average Weight Change ([7]; 24 mg/kg/inj ip, qd 1→9): -2.4 g
- Effect MST % T/C ([7]; 24 mg/kg/inj ip, qd 1→9): 342 % T/C
- MST Days ([7]; 24 mg/kg/inj ip, qd 1→9): 20.5 days
- Survivors Day 5(30) ([7]; 24 mg/kg/inj ip, qd 1→9): 4/6
- Average Weight Change ([7]; 25 mg/kg/inj ip, d.1): -0.8 g
- Effect MST % T/C ([7]; 25 mg/kg/inj ip, d.1): 183 % T/C
- MST Days ([7]; 25 mg/kg/inj ip, d.1): 11.0 days
- Survivors Day 5(30) ([7]; 25 mg/kg/inj ip, d.1): 6/6
- Average Weight Change ([7]; 48 mg/kg/inj ip, qd 1→9): -3.3 g
- Effect MST % T/C ([7]; 48 mg/kg/inj ip, qd 1→9): 100 % T/C
- MST Days ([7]; 48 mg/kg/inj ip, qd 1→9): 6.0 days
- Survivors Day 5(30) ([7]; 48 mg/kg/inj ip, qd 1→9): 5/6
- Average Weight Change ([7]; 50 mg/kg/inj ip, d.1): -1.2 g
- Effect MST % T/C ([7]; 50 mg/kg/inj ip, d.1): 208 % T/C
- MST Days ([7]; 50 mg/kg/inj ip, d.1): 12.5 days
- Survivors Day 5(30) ([7]; 50 mg/kg/inj ip, d.1): 6/6
- Average Weight Change,g ([7]; 100 mg/kg/inj ip, d.1): +2.6 g
- Effect MST % T/C ([7]; 100 mg/kg/inj ip, d.1): 217 % T/C
- MST Days ([7]; 100 mg/kg/inj ip, d.1): 13.0 days
- Survivors Day 5(30) ([7]; 100 mg/kg/inj ip, d.1): 6/6
- lethality [7]: lethal
- Average Weight Change,g ([7]; 200 mg/kg/inj ip, d.1): TOX
- Effect MST % T/C ([7]; 200 mg/kg/inj ip, d.1): TOX
- MST Days ([7]; 200 mg/kg/inj ip, d.1): TOX
- Survivors Day 5(30) ([7]; 200 mg/kg/inj ip, d.1): 1/6
- T/C ([7]; qd 1→9, 12 mg/kg/inj): 233%
- T/C ([7]; qd 1→9, 24 mg/kg/injection): 342%
- maximum T/C [7]: 217%
- optimal doses [7]: 100 mg/kg
